According to the supplement of paper PMC10307832:

Legend:
Assay in all cases: relative viability (nuclei count vs DMSO), 5 days (fraction); higher = more cells survive
[1] = test system: H3255
In short: (§1)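 Five library-drug doses in √10 steps were combined with a fixed anchor-drug dose, or a single drug was given alone, by pin tool to lung cancer cell lines in 1536-well plates the day after seeding. Nuclei were stained and counted after 5 days. Relative viability is the nuclei count in treated wells over that in vehicle wells, taken as the median of duplicate plates.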

[2] = test system: LU99A
In short: as §1

[3] = test system: NCI-H23
In short: as §1

[4] = test system: NCI-H1563
In short: as §1

[5] = test system: SW 1573
In short: as §1

[6] = test system: PC-14
In short: as §1

[7] = test system: LCLC-103H
In short: as §1

[8] = test system: COR-L23
In short: as §1

[9] = test system: NCI-H2228
In short: as §1

[10] = test system: NCI-H1793
In short: as §1

[11] = test system: PC-3 [JPC-3]
In short: as §1

[12] = test system: NCI-H727
In short: as §1

[13] = test system: SW 900
In short: as §1

[14] = test system: LCLC-97TM1
In short: as §1

[15] = test system: LK-2
In short: as §1

[16] = test system: NCI-H1650
In short: as §1

[17] = test system: NCI-H2347
In short: as §1

[18] = test system: A-427
In short: as §1

[19] = test system: 201T
In short: as §1

[20] = test system: NCI-H596
In short: as §1

[21] = test system: LC-2-ad
In short: as §1

[22] = test system: NCI-H460
In short: as §1

**Q.** Which results are given for O=c1cc(-c2cccc3c2Sc2ccccc2S3)oc(N2CCOCC2)c1 + Cc1nc(Nc2ncc(C(=O)Nc3c(C)cccc3Cl)s2)cc(N2CCN(CCO)CC2)n1 [Dasatinib] (partner 0.075 µM)?
**A.** relative viability ([1]; first compound 0.08 µM): 0.334; relative viability ([1]; first compound 0.253 µM): 0.288; relative viability ([1]; first compound 0.8 µM): 0.363; relative viability ([1]; first compound 2.53 µM): 0.342; relative viability ([1]; first compound 8 µM): 0.556; relative viability ([2]; first compound 0.08 µM): 0.759; relative viability ([2]; first compound 0.253 µM): 0.61; relative viability ([2]; first compound 0.8 µM): 0.587; relative viability ([2]; first compound 2.53 µM): 0.754; relative viability ([2]; first compound 8 µM): 0.631; relative viability ([3]; first compound 0.08 µM): 0.721; relative viability ([3]; first compound 0.253 µM): 0.716; relative viability ([3]; first compound 0.8 µM): 0.783; relative viability ([3]; first compound 2.53 µM): 0.702; relative viability ([3]; first compound 8 µM): 0.86; relative viability ([4]; first compound 0.08 µM): 0.473; relative viability ([4]; first compound 0.253 µM): 0.454; relative viability ([4]; first compound 0.8 µM): 0.437; relative viability ([4]; first compound 2.53 µM): 0.366; relative viability ([4]; first compound 8 µM): 0.467; relative viability ([5]; first compound 0.08 µM): 0.417; relative viability ([5]; first compound 0.253 µM): 0.66; relative viability ([5]; first compound 0.8 µM): 0.706; relative viability ([5]; first compound 2.53 µM): 0.436; relative viability ([5]; first compound 8 µM): 0.461; relative viability ([6]; first compound 0.08 µM): 0.225; relative viability ([6]; first compound 0.253 µM): 0.217; relative viability ([6]; first compound 0.8 µM): 0.225; relative viability ([6]; first compound 2.53 µM): 0.175; relative viability ([6]; first compound 8 µM): 0.253; relative viability ([7]; first compound 0.08 µM): 0.416; relative viability ([7]; first compound 0.253 µM): 0.503; relative viability ([7]; first compound 0.8 µM): 0.528; relative viability ([7]; first compound 2.53 µM): 0.439; relative viability ([7]; first compound 8 µM): 0.551; relative viability ([8]; first compound 0.08 µM): 0.564; relative viability ([8]; first compound 0.253 µM): 0.589; relative viability ([8]; first compound 0.8 µM): 0.571; relative viability ([8]; first compound 2.53 µM): 0.58; relative viability ([8]; first compound 8 µM): 0.504; relative viability ([9]; first compound 0.08 µM): 0.547; relative viability ([9]; first compound 0.253 µM): 0.6; relative viability ([9]; first compound 0.8 µM): 0.625; relative viability ([9]; first compound 2.53 µM): 0.402; relative viability ([9]; first compound 8 µM): 0.51; relative viability ([10]; first compound 0.08 µM): 0.379; relative viability ([10]; first compound 0.253 µM): 0.441; relative viability ([10]; first compound 0.8 µM): 0.335; relative viability ([10]; first compound 2.53 µM): 0.379; relative viability ([10]; first compound 8 µM): 0.386; relative viability ([11]; first compound 0.08 µM): 1; relative viability ([11]; first compound 0.253 µM): 0.949; relative viability ([11]; first compound 0.8 µM): 1.07; relative viability ([11]; first compound 2.53 µM): 0.828; relative viability ([11]; first compound 8 µM): 1.05; relative viability ([12]; first compound 0.08 µM): 0.332; relative viability ([12]; first compound 0.253 µM): 0.438; relative viability ([12]; first compound 0.8 µM): 0.449; relative viability ([12]; first compound 2.53 µM): 0.382; relative viability ([12]; first compound 8 µM): 0.409; relative viability ([13]; first compound 0.08 µM): 0.503; relative viability ([13]; first compound 0.253 µM): 0.919; relative viability ([13]; first compound 0.8 µM): 0.352; relative viability ([13]; first compound 2.53 µM): 0.44; relative viability ([13]; first compound 8 µM): 0.538; relative viability ([14]; first compound 0.08 µM): 0.899; relative viability ([14]; first compound 0.253 µM): 0.863; relative viability ([14]; first compound 0.8 µM): 0.956; relative viability ([14]; first compound 2.53 µM): 0.749; relative viability ([14]; first compound 8 µM): 0.757; relative viability ([15]; first compound 0.08 µM): 0.306; relative viability ([15]; first compound 0.253 µM): 0.252; relative viability ([15]; first compound 0.8 µM): 0.267; relative viability ([15]; first compound 2.53 µM): 0.145; relative viability ([15]; first compound 8 µM): 0.263; relative viability ([16]; first compound 0.08 µM): 0.327; relative viability ([16]; first compound 0.253 µM): 0.339; relative viability ([16]; first compound 0.8 µM): 0.259; relative viability ([16]; first compound 2.53 µM): 0.241; relative viability ([16]; first compound 8 µM): 0.267; relative viability ([17]; first compound 0.08 µM): 0.298; relative viability ([17]; first compound 0.253 µM): 0.286; relative viability ([17]; first compound 0.8 µM): 0.296; relative viability ([17]; first compound 2.53 µM): 0.304; relative viability ([17]; first compound 8 µM): 0.298; relative viability ([18]; first compound 0.08 µM): 0.695; relative viability ([18]; first compound 0.253 µM): 0.871; relative viability ([18]; first compound 0.8 µM): 0.744; relative viability ([18]; first compound 8 µM): 0.884; relative viability ([19]; first compound 0.08 µM): 0.637; relative viability ([19]; first compound 0.253 µM): 0.599; relative viability ([19]; first compound 0.8 µM): 0.355; relative viability ([19]; first compound 2.53 µM): 0.521; relative viability ([19]; first compound 8 µM): 0.654; relative viability ([20]; first compound 0.08 µM): 0.662; relative viability ([20]; first compound 0.253 µM): 0.636; relative viability ([20]; first compound 0.8 µM): 0.541; relative viability ([20]; first compound 2.53 µM): 0.504; relative viability ([20]; first compound 8 µM): 0.594; relative viability ([21]; first compound 0.08 µM): 0.648; relative viability ([21]; first compound 0.253 µM): 0.584; relative viability ([21]; first compound 0.8 µM): 0.532; relative viability ([21]; first compound 2.53 µM): 0.405; relative viability ([21]; first compound 8 µM): 0.461; relative viability ([22]; first compound 0.08 µM): 0.454; relative viability ([22]; first compound 0.253 µM): 0.619; relative viability ([22]; first compound 0.8 µM): 0.436; relative viability ([22]; first compound 2.53 µM): 0.408; relative viability ([22]; first compound 8 µM): 0.55
